Reference: patent US10292390B2, “Inhibition and dispersion of bacterial biofilms with 2-aminobenzimidazole derivatives” (WISCONSIN ALUMNI RESEARCH FOUNDATION, priority 2011, dated 2019)
“Also recorded” adds a separate entry of the source.

How the values were obtained:
Gram-positive bacteria = settings: WO 2010/144686 (7); ref. 34 (18); cited from earlier work
[1] = UV-Vis metal binding studies; type: physicochemical; settings: compound:metal ratios of approximately 1:1; preliminary
[2] = system: P. aeruginosa PAO1 gen-gfp; assay: constitutive GFP production (general protein synthesis); type: cell-based, Pseudomonas aeruginosa; settings: 24 h; dose-response
Protocol: Compounds 7 and 21 were tested for their effect on general protein synthesis in P. aeruginosa. In these assays a P. aeruginosa strain that constitutively produced GFP was employed. […] [59]
The constitutively-expressing genomic (gen)-GFP strain, PAO1 gen-gfp, was prepared using the mini-Tn7 transposon system reported by Lambertsen et al. and Koch et al. to introduce the Tn7 element miniTn7-gfp2 into the neutral chromosomal site attTn7 in the PAO1 genome. The Tn7 element miniTn7-gfp2 was chosen for these studies because it encodes for the same GFP variant, GFPmut3b, used in our QS reporters, discussed herein below. However, rather than being an unstable GFP under the control of the laslI or rhII QS-dependent promoter as in the QS reporters, GFP is stable and under the control of the constitutive E. coli lac-promoter derivative PA1/04/03. The use of this strain allows a comparison of QS-dependent and non-QS-dependent gene expression in the presence of 7 and 21.
Compounds 7 and 21 were evaluated for their ability to affect constitutive GFP production in the P. aeruginosa PAO1 gen-gfp strain using the static biofilm assay conditions described above. […] Measurements of FL500/540 and OD600 were made at 24 h, after which the samples were evaluated for biofilm formation using the CV procedure. […]

P. aeruginosa biofilm = assay: effects of metals on biofilm inhibition; type: cell-based, Pseudomonas aeruginosa; settings: compound at 250 μM; Cu(II)SO4, Fe(II)SO4, Fe(III)Cl3, Zn(II)SO4 up to 1000 μM; 24 h
Protocol: Microtiter plates were first prepared by adding 50 μL aliquots of a 1 mM EtOH stock solution of 7 to each well in order to effect a final well concentration upon inoculum addition of 250 μM; this concentration was chosen as it is approximately the minimum concentration of 7 showing maximal biofilm inhibition. The EtOH was then removed by drying at 37° C., and the plates were sterilized. Directly prior to inoculation, 100 mM stock solutions of metals were freshly prepared in 18 MΩ H2O and diluted in series in a polypropylene 96-well microtiter plate (Costar 3879) to achieve stocks with the following concentrations: 100, 75, 50, 25, 12.5, 6.25, 1.25, 0.25, 0.05, and 0 mM. The choice of metals for evaluation was based on the results of the UV-Vis studies and included Cu(II)SO4, Fe(II)SO4.7H2O, Fe(III)Cl3.6H2O, and Zn(II)SO4.7H2O. Using a 10 μL multi-channel pipette, 2 μL aliquots of the metal stock solutions were added to the side of wells, avoiding contact with dried 7 on the bottom of the well. […] The highest metal:7 ratio obtained was 4:1 (1000 μM metal to 250 μM 7), which was assumed to be sufficient to see any mitigating effect based on our UV-Vis studies. […] All samples were tested in replicates of 3 wells and were assessed for biofilm production after 24 h incubation by CV staining and quantification.

[3] = system: preformed P. aeruginosa biofilms; assay: biofilm dispersion assay (preformed 24 h-old biofilms, crystal violet); type: cell-based, Pseudomonas aeruginosa; settings: for dispersion of preformed biofilm / DC50: 24 h-old biofilm, additional 24 h with compound; for effect on final OD600 measurement during dispersion: 48 h; for DC50: Pseudomonas aeruginosa, read-out: half maximal dispersion DC50
Protocol: Compounds capable of not only inhibiting biofilm growth, but also dispersing preformed biofilms, are of particular value for a range of clinical and other applications. The ability of compounds 7 and 21 to disperse 24 h-old P. aeruginosa biofilms was tested using the crystal violet staining assay (FIG. 1B). Biofilms were allowed to develop in the absence of compound for 24 h, after which non-biofilm material was removed by washing with buffer and fresh media with compound was added. Biofilm was quantified after an additional 24 h, and the amount of dispersed biofilm was determined via comparison of the amount of biofilm at 48 h in the presence of compound versus the amount of biofilm at 24 h in the absence of compound. 2-ABIs 7 and 21 were capable of strongly dispersing P. aeruginosa biofilms (˜80%), with half maximal dispersion DC50 values of 84 μM and 92 μM, respectively (FIG. 1B).
Compounds 7 and 21 were evaluated for their ability to disperse preformed P. aeruginosa biofilms. For biofilm dispersion assessment, the static CV biofilm assay described above was modified in order to introduce compound to preformed biofilm for an additional incubation period. Solvent evaporation delivery of compound was not possible in this format; thus, stock solutions of compounds 7 and 21 were prepared in 95:5 M9+:LB media. Stocks of 7 and 21 were prepared at 3.16 mM and 1 mM, respectively (21 was insoluble at 3.16 mM). These stocks were diluted in series to obtain final concentrations as follows: 10^x μM where x=3.5 (7 only), 3, 2.5, 2, 1.5 (21 only), 1, 0, −1, or −2. Biofilms were allowed to form in microtiter plates in the absence of compound for 24 h, after which non-biofilm material was removed by dumping and washing as normal with sterile PBS. After the second washing, 200 μL of fresh 95:5 M9+:LB media containing compound at various concentrations was added to the wells, and the plates were incubated at 37° C. for an additional 24 h. One set of wells was left empty in order to assess the amount of biofilm present after the first 24 h incubation, while another set of wells was given media without compound to assess the amount of biofilm at 48 h. […] After the second 24 h incubation, non-biofilm material was removed by dumping and washing 4× with PBS (the additional washing at 48 h was found necessary to completely remove detached Int biofilm that had settled over the SA biofilm; data not shown). Biofilm was fixed and quantified with CV as described above. The amount of dispersed biofilm was determined via comparison of the amount of biofilm at 48 h in the presence of compound versus the amount of biofilm in the “no compound” positive control at 24 h. A higher degree of error was often observed with this assay format due to the additional incubation and washing steps; thus, all compounds were tested in replicates of 6 wells.
DC50 values for biofilm dispersion by 7 and 21 were calculated using a sigmoidal curve fit (three parameters) and are reported with a 95% Cl.

P. aeruginosa growth = assay: bacterial growth over time (OD600); type: cell-based, Pseudomonas aeruginosa; settings: prior to 12 h; at concentrations as low as 10 μM; diminish by 12 h
Protocol: The effects of compounds 7 and 21 on P. aeruginosa growth were evaluated by monitoring the OD600 as a function of time. Microtiter plates were prepared similar to biofilm dose-response analyses such that final well concentrations upon inoculum addition ranged from 10^x μM where x=3.5, 3, 2.5, 2, 1.5, 1, 0, −1, or −2. Compounds 7 and 21 were tested in replicates of 3 wells, and the OD600 was measured every 1-2 h for 24 h.

Structure (SMILES) | biofilm inhibition in Gram-positive bacteria as reported (Gram-positive bacteria) | interaction with metals [1] | effect on constitutive GFP production / protein synthesis [2] | mitigating effect of metals on biofilm inhibitory activity (P. aeruginosa biofilm) | dispersion of preformed biofilm [3] [%] | effect on final OD600 measurement during dispersion [3] | DC50 [3] [µM] | growth inhibition versus positive control (P. aeruginosa growth)
Nc1nc2ccccc2[nH]1 [Compound 7, 2-aminobenzimidazole] | no inhibition of biofilm formation | able to interact with certain metals | only inhibit the production of GFP at concentrations where bacterial growth is also inhibited; also recorded: do not simply globally affect protein synthesis | none of the tested metals were able to mitigate the biofilm inhibitory activity; also recorded: observed no change in activity | ~80 | without significantly affecting the final OD600 measurement | 84 | –
Cc1cc2nc(N)[nH]c2cc1C [Compound 21, 5,6-Dimethyl-2-aminobenzimidazole] | – | – | only inhibit the production of GFP at concentrations where bacterial growth is also inhibited; also recorded: do not simply globally affect protein synthesis | – | ~80 | without significantly affecting the final OD600 measurement | 92 | greater than 20%
